The values below come from ChEMBL document CHEMBL1687768, “Liposomal amphotericin B and echinocandins as monotherapy or sequential or concomitant therapy in murine disseminated and pulmonary Aspergillus fumigatus infections” (Antimicrob Agents Chemother, 2010).

Converted amounts (≈) assume the structure as drawn. The source made the active and inactive calls. No cut-off for these calls is given here. Starred links: 1 amine or outer side, 2 acyl side, 3 side chain; linkers in the order of their positions; H or OH if unused. Positions of bridges follow the written chain, without caps; N, C: chain ends. Non-standard residues stand in square brackets, D forms with d. Residues, ends and D or L forms follow the SMILES beside them. *: point of attachment. hTyr(3S-OH,4S-OH,3'-OSO3H) = N[C@H](C(=O)O)[C@H](O)[C@@H](O)c1ccc(O)c(OS(=O)(=O)O)c1; Orn(4R-OH,5R-OH) = O=C([C@H](C[C@@H](O)[C@@H](O)N[*:3])N[*:1])[*:2]; Pro(3S-OH,4S-Me) = C[C@H]1CN[C@H](C(=O)O)[C@H]1O; X1 = CCCCCOc1ccc(-c2cc(-c3ccc(C(=O)*)cc3)no2)cc1; Gln(3R-OH) = NC(=O)C[C@@H](O)[C@H](N)C(=O)O; Hyp = O=C(O)[C@@H]1C[C@@H](O)CN1

The test system of data set [1] is Aspergillus fumigatus. In words: Antifungal activity against Aspergillus fumigatus ATCC 13073 infected in immunosuppressed Swiss Webster mouse assessed as increase in survival rate at 5 mg/kg, iv for 6 days treated 24 hrs postinfection measured after 28 days. The format is functional, organism-based. On the set-up: dose 5 mg/kg.
The subject of data set [2] is Kidney. As to the kind of experiment: Drug level in immunosuppressed Swiss Webster mouse kidney with pulmonary aspergillosis assessed as compound level per gram of tissue at 5 mg/kg/day, iv for 5 days measured on day 6. The format is ADME, organism-based. On the set-up: route intravenous. To be noted: in vivo, 120 h.
Data set [3] deals with Aspergillus fumigatus. As to the kind of experiment: Antifungal activity against Aspergillus fumigatus ATCC 13073. The data set is classed as functional.
Data set [4] relates to Aspergillus fumigatus. As to the kind of experiment: Antifungal activity against Aspergillus fumigatus ATCC 13073 infected Swiss Webster mouse pulmonary aspergillosis model assessed as organism survival at 5 mg/kg/day, iv for 5 days dosed 2 hrs post challenge. The format is functional.
Data set [5] has as its system Spleen. In words: Drug level in immunosuppressed Swiss Webster mouse spleen with pulmonary aspergillosis assessed as compound level per gram of tissue at 5 mg/kg/day, iv for 5 days measured on day 6. The following applies: in vivo, 120 h. The format is ADME, organism-based. Further details: route intravenous.
Data set [6] deals with Aspergillus fumigatus. As to the kind of experiment: Antifungal activity against Aspergillus fumigatus ATCC 13073 infected in immunosuppressed Swiss Webster mouse assessed as reduction in fungal burden in spleen at 15 mg/kg, iv for 6 days treated 24 hrs postinfection measured 24 hrs after last dose by galactomnnan assay relative to control. The format is functional, organism-based. On the set-up: dose 15 mg/kg.

In data set [7] the test system is Aspergillus fumigatus. In words: Antifungal activity against Aspergillus fumigatus ATCC 13073 infected in immunosuppressed Swiss Webster mouse assessed as reduction in fungal burden in spleen at 5 mg/kg, iv for 3 days treated 4 days postinfection relative to control. The data set is classed as functional, organism-based. Further details: dose 5 mg/kg.
Data set [8] deals with Aspergillus fumigatus. In words: Antifungal activity against Aspergillus fumigatus ATCC 13073 infected in immunosuppressed Swiss Webster mouse assessed as survival rate at 5 mg/kg, iv for 6 days treated 24hrs postinfection measured after 28 days. The data set is classed as functional.
In data set [9] the test system is Aspergillus fumigatus. As to the kind of experiment: Antifungal activity against Aspergillus fumigatus ATCC 13073 infected in immunosuppressed Swiss Webster mouse assessed as reduction in fungal burden in kidney at 5 mg/kg, iv for 6 days measured 24 hrs after last dose relative to control. Further details: dose 5 mg/kg. The data set is classed as functional, organism-based.

In data set [10] the test system is Kidney. As to the kind of experiment: Drug level in immunosuppressed Swiss Webster mouse Kidney with disseminated aspergillosis assessed as compound level per gram of tissue at 5 mg/kg/day, iv for 7 days measured on day 8. To be noted: in vivo, 168 h. On the set-up: route intravenous. The data set is classed as ADME, organism-based.
The subject of data set [11] is Aspergillus fumigatus. As to the kind of experiment: Antifungal activity against Aspergillus fumigatus ATCC 13073 infected in immunosuppressed Swiss Webster mouse assessed as survival rate at 15 mg/kg, iv for 6 days measured after 28 days. The data set is classed as functional.
Data set [12] has as its system Aspergillus fumigatus. In words: Antifungal activity against Aspergillus fumigatus ATCC 13073 infected in immunosuppressed Swiss Webster mouse assessed as reduction in fungal burden in kidney at 5 mg/kg, iv for 3 days treated 4 days postinfection relative to control. The format is functional, organism-based. On the set-up: dose 5 mg/kg.
For data set [13], the system named is Aspergillus fumigatus. As to the kind of experiment: Antifungal activity against Aspergillus fumigatus ATCC 13073 infected in immunosuppressed Swiss Webster mouse assessed as reduction in fungal burden in spleen at 5 mg/kg, iv for 6 days treated 24 hrs postinfection measured 24 hrs after last dose relative to control. The format is functional, organism-based. Further details: dose 5 mg/kg.

Data set [14] has as its system Spleen. As to the kind of experiment: Drug level in immunosuppressed Swiss Webster mouse spleen with disseminated aspergillosis assessed as compound level per gram of tissue at 5 mg/kg/day, iv for 7 days measured on day 8. The format is ADME, organism-based. Further details: route intravenous. The following applies: in vivo, 168 h.
Data set [15] relates to Kidney. As to the kind of experiment: Drug level in immunosuppressed Swiss Webster mouse Kidney with disseminated aspergillosis assessed as compound level per gram of tissue at 10 mg/kg/day, iv for 7 days measured on day 8. The data set is classed as ADME, organism-based. Further details: route intravenous. To be noted: in vivo, 168 h.
Data set [16] has as its system Spleen. In words: Drug level in immunosuppressed Swiss Webster mouse spleen with disseminated aspergillosis assessed as compound level per gram of tissue at 15 mg/kg/day, iv for 7 days measured on day 8. The following applies: in vivo, 168 h. On the set-up: route intravenous. The data set is classed as ADME, organism-based.
Data set [17] concerns Kidney. As to the kind of experiment: Drug level in immunosuppressed Swiss Webster mouse Kidney with disseminated aspergillosis assessed as compound level per gram of tissue at 15 mg/kg/day, iv for 7 days measured on day 8. The data set is classed as ADME, organism-based. On the set-up: route intravenous. To be noted: in vivo, 168 h.
The test system of data set [18] is Aspergillus fumigatus. As to the kind of experiment: Antifungal activity against Aspergillus fumigatus ATCC 13073 infected in immunosuppressed Swiss Webster mouse assessed as reduction in fungal burden in spleen at 10 mg/kg, iv for 6 days treated 24 hrs postinfection measured 24 hrs after last dose relative to control. The format is functional, organism-based. Further details: dose 10 mg/kg.

In data set [19] the test system is Spleen. In words: Drug level in immunosuppressed Swiss Webster mouse spleen with disseminated aspergillosis assessed as compound level per gram of tissue at 10 mg/kg/day, iv for 7 days measured on day 8. To be noted: in vivo, 168 h. On the set-up: route intravenous. The data set is classed as ADME, organism-based.

In general, MIC refers to the lowest concentration found to suppress growth. `CC[C@H](C)C[C@H](C)CCCCCCCCC(=O)N[C@H]1C[C@@H](O)[C@@H](NCCN)NC(=O)[C@@H]2[C@@H](O)CCN2C(=O)[C@H]([C@H](O)CCN)NC(=O)[C@H]([C@H](O)[C@@H](O)c2ccc(O)cc2)NC(=O)[C@@H]2C[C@@H](O)CN2C(=O)[C@H]([C@@H](C)O)NC1=O` [CASPOFUNGIN]: the outcome in data set [1] was Active. The tissue concentration in [2] turned out to be 14.4 µg/g; in [5], 31.6 µg/g. The same compound had an MIC in data set [3] of 0.31 µg/mL (≈ 0.284 µM). The survival at 5 mg/kg/day in data set [4] is 0%.
In the case of `CCCCCOc1ccc(-c2cc(-c3ccc(C(=O)N[C@H]4C[C@@H](O)[C@@H](O)NC(=O)[C@@H]5[C@@H](O)[C@@H](C)CN5C(=O)[C@H]([C@H](O)CC(N)=O)NC(=O)[C@H]([C@H](O)[C@@H](O)c5ccc(O)c(OS(=O)(=O)O)c5)NC(=O)[C@@H]5C[C@@H](O)CN5C(=O)[C@H]([C@@H](C)O)NC4=O)cc3)no2)cc1` [MICAFUNGIN] (X1-[Orn(4R-OH,5R-OH)]T[Hyp][hTyr(3S-OH,4S-OH,3'-OSO3H)][Gln(3R-OH)][Pro(3S-OH,4S-Me)]; lactam 1-C), the outcome in [6], in data set [9], in [13] and in data set [18] was Active. The result in data set [7] and in [12] was inactive. Further, the survival at 5 mg/kg in [8] is 86%. The tissue concentration in data set [10] was 5.6 µg/g; in [14], 17.9 µg/g; in data set [15] it was 25.2 µg/g; in data set [16] it was 32.7 µg/g; in data set [17], 22.5 µg/g; in data set [19], 33.6 µg/g. For the same compound, the survival at 15 mg/kg in data set [11] was determined as 57%. In data set [3], this compound gave a minimal inhibitory concentration (MIC) of 0.31 µg/mL (≈ 0.244 µM).
